Measured values from patent US20060281728A1, “3-Substituted beta-lactamyl vasopressin v1a antagonists” (priority 2003, published 2006).

Target: human V1a receptor (Homo sapiens, UniProt P37288)
Assay: Human vasopressin V1a receptor binding assay
Conditions: competitive binding against 1 nM 3H-AVP, hV1a cell line (CHO cells), 45 minutes at 37° C.
Description: A cell line expressing the human V1a receptor in CHO cells (henceforth referred to as the hV1a cell line) was obtained from Dr. Michael Brownstein, NIMH, Bethesda, Md., USA. The hV1a cDNA sequence is described by Thibonnier et al., Journal of Biological Chemistry, 269:3304-3310 (1994), and the expression method was the same as described by Morel et al. (1992). The hV1a cell line was grown in alpha-MEM with 10% fetal bovine serum and 250 ug/ml G418 (Gibco, Grand Island, N.Y., USA). For competitive binding assay, hV1a cells were plated into 6-well culture plate at 1:10 dilution from a confluency flask, and maintained in culture for at least two days. Culture medium was then removed, cells were washed with 2 ml binding buffer (25 mM Hepes, 0.25% BSA, 1×DMEM, PH=7.0). To each well, 990 μl binding buffer containing 1 nM 3H-AVP was added, and followed by 10 μl series diluted Example compounds dissolved in DMSO. All incubations were in triplicate, and dose-inhibition curves consisted of total binding (DMSO) and 5 concentrations (0.1, 1.0, 10, 100, and 1000 nM) of test agents encompassing the IC50. 100 nM cold AVP (Sigma) was used to assess non-specific binding. […] Samples were counted in a liquid scintillation counter (Beckman LS3801). IC50 values were calculated by Prism Curve fitting software.

Chain of human V1a receptor (P37288 whole entry): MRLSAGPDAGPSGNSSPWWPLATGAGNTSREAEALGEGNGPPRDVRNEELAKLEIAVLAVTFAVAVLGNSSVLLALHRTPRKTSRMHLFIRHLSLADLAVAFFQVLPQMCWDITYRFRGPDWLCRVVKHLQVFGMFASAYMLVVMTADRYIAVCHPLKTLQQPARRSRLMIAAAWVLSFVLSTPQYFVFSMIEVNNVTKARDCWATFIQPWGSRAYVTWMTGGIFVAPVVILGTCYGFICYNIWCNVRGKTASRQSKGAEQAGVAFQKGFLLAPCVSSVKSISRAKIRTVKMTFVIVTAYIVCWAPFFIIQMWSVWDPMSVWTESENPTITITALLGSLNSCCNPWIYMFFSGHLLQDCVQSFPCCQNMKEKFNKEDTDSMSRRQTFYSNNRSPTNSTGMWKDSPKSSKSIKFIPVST

C[C@@]1(N2C(=O)OC[C@@H]2c2ccccc2)C(=O)N([C@H](CC(=O)N2CCC(N3CCCCC3)CC2)C(=O)NCc2cccc(C(F)(F)F)c2)[C@@H]1/C=C/c1ccccc1 [Example 33, 4-(Piperidin-1-yl)-piperidin-1-yl 3(R)-[3(S)-(4(S)-phenyloxazolidin-2-on-3-yl)-3-methyl-4(R)-(styr-2-yl)azetidin-2-on-1-yl]-3-[(3-trifluoromethyl)phenylmethylaminocarbonyl]propanoic acid]
IC50: 5 nM
